US9505834B2, “Methods for controlling the galactosylation profile of recombinantly-expressed proteins” (AbbVie Inc., priority 2011, dated 2016)

How the values were obtained:
Format in all cases: cell-based, Chinese Hamster
[1] = system: adalimumab-producing CHO cell line; assay: Example 2 culture growth & productivity, HyClone CDM4CHO; settings: galactose 0 to 40 mM and/or manganese chloride up to 10 μM
Protocol: (§1) For all studies with CHO cell lines described throughout this invention, samples were collected daily and measured for cell density and viability using a Cedex cell counter. Retention samples for titer analysis via Poros A method were collected by centrifugation at 12,000 RPM for 5 min when the culture viability began declining. The cultures were harvested by collecting 125 mL aliquots and centrifuging at 3,000 RPM for 30 min when culture viability was near or below 50%. All supernatants were stored at −80° C. until analysis.
Growth and production media for the adalimumab-producing CHO cell line were prepared using Thermo Scientific HyClone chemically defined media CDM4CHO without L-glutamine (Catalogue #SH30558.02). […] All media were filtered through Corning 0.5 L or 1 L (0.22 μm PES) filter systems and stored at 4° C. until use.
Upon thaw, cells were adapted to and expanded in HyClone CDM4CHO media for 5 (2 to 3 day each) passages in a combination of 250 mL, 500 mL, and 1000 mL Corning vented non-baffled shake flasks. Production cultures were initiated in duplicate 500 mL Corning vented non-baffled shake flasks (200 mL working volume) at an initial VCD of approximately 0.5×10^6 cells/mL. Cultures were maintained on orbital shakers at 110 RPM in a dry incubator at 35° C. and 5% CO2. […]

[2] = system: adalimumab-producing CHO cell line #3; assay: Example 5 oligosaccharide analysis, CDM GIA-1, fed-batch 3 L bioreactors
Protocol: as §1
(§2) For all studies, the harvest samples were Protein A purified and prepared for the oligosaccharide assay using the following procedures. As a first step in the process of establishing the identity and quantifying the oligosaccharides, they are released from the protein by enzymatic digestion with N-glycanase. Once the glycans are released, the free reducing end of each glycan is labeled by reductive amination with a fluorescent tag, 2-aminobenzamide (2-AB). The resulting labeled glycans are separated by normal-phase HPLC (NP-HPLC) in acetonitrile: 50 mM ammonium formate, pH 4.4, and detected by a fluorescence detector. Quantitation is based on the relative area percent of detected sugars. Throughout this invention, the relative area percentages of the agalactosyl fucosylated biantennary oligosaccharides, denoted as NGA2F+NGA2F-GlcNAc sum, and the galactose-containing fucosylated biantennary oligosaccharides NA1F+NA2F sum are reported and discussed.
Growth and production media for the adalimumab-producing CHO cell line #3 were prepared using the proprietary Life Technologies Gibco chemically defined media, GIA-1.
Upon thaw, cells were expanded in Corning vented non-baffled shake flasks maintained on orbital shakers at 140 RPM, and in 10 L cell bags (2 L working volume) maintained at 25 RPM, 7° angle, and 0.25 SLPM airflow in a dry incubator at 36° C. and 5% CO2. Production cultures were initiated in 3 L bioreactors (1.4 L initial working volume) at 36° C., 30% dissolved oxygen, 200 RPM, and pH 6.9±0.2. A fixed split ratio of cells to media of 1:6.7 was utilized to initiate the production stage cultures. A temperature shift was performed when the culture VCD reached a value higher than 5×10^6 cells/mL. The chemically-defined feed from Life Technologies Gibco JCL-5 was added as follows: 4% (v/v)—day 2, 6%—day 4, 8%—day 6, 10%—day 8, and 10%—day 10. […] Bioreactors were harvested at a viability of approximately 50% or on production day 17, whichever condition occurred first.
Galactose was supplemented at 0 and 30 mM concentrations in both production and feed media.

[3] = system: CHO cell line producing mAb #1; assay: Example 7 culture growth & productivity
Protocol: as §1
(§3) Growth and production media for the CHO cell line producing mAb #1 were prepared using a proprietary Life Technologies Gibco chemically defined media, GIA-1. […] All media were filtered through Corning 0.5 L or 1 L filter systems (0.22 μm PES) and stored at 4° C. until use.
(§4) Upon thaw, cells were expanded for 6 (3 day each) passages in a combination of 250 mL, 500 mL, and 1000 mL Corning vented non-baffled shake flasks. Production cultures were initiated in duplicate 500 mL Corning vented non-baffled shake flasks (200 mL working volume) at an initial VCD of approximately 0.5×10^6 cells/mL. Cultures were maintained on orbital shakers at 125 RPM in a dry incubator at 35° C. and 5% CO2. A glucose solution (1.25% (v/v) of 40% solution) was fed when the media glucose concentration fell below 3 g/L. […]

[4] = system: adalimumab-producing CHO cell line #2; assay: Example 4 oligosaccharide analysis, CDM GIA-1, batch shake flasks
Protocol: as §1, §2
Growth and production media for the adalimumab-producing CHO cell line #2 were prepared using a proprietary Life Technologies Gibco chemically defined media, GIA-1. […] All media were filtered through Corning 0.5 L or 1 L filter systems (0.22 μm PES) and stored at 4° C. until use.
Upon thaw, cells were expanded for 5 to 8 (2 to 3 day each) passages in a combination of 250 mL, 500 mL, and 1000 mL Corning vented non-baffled shake flasks. Production cultures were initiated in duplicate 500 mL Corning vented non-baffled shake flasks (200 mL working volume) at an initial VCD of approximately 0.5×10^6 cells/mL. Cultures were maintained on orbital shakers at 180 RPM in a dry incubator at 35° C. and 5% CO2. A glucose solution (1.25% (v/v) of 40% solution) was fed when the media glucose concentration fell below 3 g/L.
Galactose was supplemented at the following levels in production media: 0, 10, and 20 mM. […] This study was run in 2 blocks.

[5] = system: CHO cell line producing mAb #1; assay: Example 7 oligosaccharide analysis, CDM GIA-1, batch shake flasks
Protocol: as §1, §2, §3, §4

[6] = 0.2 μM manganese chloride alone
[7] = manganese chloride alone, range 0 to 40 μM

## Manganese (II) Chloride [manganese chloride]
[1]
  cell growth and viability profiles: comparable to the control cultures
[2]; [6]
  decrease in the NGA2F+NGA2F-GlcNac sum: 15%
  increase in the NA1F+NA2F sum: 16%
[2]; 1 μM manganese chloride alone
  increase in the NA1F+NA2F oligosaccharides: 28%
  maximum decrease in the NGA2F+NGA2F-GlcNac: 26%
[3]; manganese chloride alone 0 to 20 μM
  culture growth: grew comparable to the control cultures
[4]; 10 μM manganese chloride alone
  decrease in the NGA2F+NGA2F-GlcNac sum: 18%
[4]; 20 μM manganese chloride alone
  maximum decrease in the NGA2F+NGA2F-GlcNac sum: 22%
  maximum increase in the NA1F+NA2F sum: 23%
[5]; 40 μM manganese chloride alone
  decrease in the NGA2F+NGA2F-GlcNac sum: 20%
[5]; [7]
  maximum decrease in the NGA2F+NGA2F-GlcNac sum: 26%
  maximum increase in the NA1F+NA2F sum: 27%

## O=C[C@H](O)[C@@H](O)[C@@H](O)[C@H](O)CO [galactose, D(+)Galactose]
[1]
  cell growth and viability profiles: comparable to the control cultures
[2]; 30 mM galactose alone
  decrease in the NGA2F+NGA2F-GlcNac sum: 4%
  increase in the NA1F+NA2F sum: 3%
[3]; galactose alone
  culture growth: grew to a lower maximum VCD compared to the control
[4]; 10 mM galactose alone
  decrease in the NGA2F+NGA2F-GlcNac sum: 6%
[4]; 20 mM galactose alone
  maximum decrease in the NGA2F+NGA2F-GlcNac sum: 9%
  maximum increase in the NA1F+NA2F sum: 10%
[5]; 40 mM galactose alone
  decrease in the NGA2F+NGA2F-GlcNac sum: 12%
[5]; galactose alone up to 40 mM
  maximum decrease in the NGA2F+NGA2F-GlcNac sum: 12%
  maximum increase in the NA1F+NA2F sum: 13%
